Results taken from ChEMBL document CHEMBL1152321, “Recent advances in the chemistry and biology of new generation taxoids” (J Nat Prod, 2009).

Columns and labels:
MCF7 [1] = assay: Resistance factor, ratio of IC50 for P-glycoprotein deficient wild type human MCF7 cells to IC50 for multidrug-resistant human NCI/ADR cells; type: functional
[2] = Cytotoxicity against P-glycoprotein deficient wild type human LCC-6 cells after 72 hrs; type: functional, cell-based; settings: LCC-6, 72 h
[3] = Resistance factor, ratio of IC50 for human LCC-6 cells expressing P-glycoprotein to IC50 for P-glycoprotein deficient wild type human LCC-6 cells; type: functional; set-up: reference not given here
HT-29 = assay: Cytotoxicity against human HT-29 cells after 72 hrs; type: functional, cell-based; settings: HT-29, 72 h
MCF7 [4] = assay: Cytotoxicity against human MCF7 cells expressing P-glycoprotein after 72 hrs; type: functional, cell-based; settings: MCF7, 72 h
NCI-H460 = assay: Cytotoxicity against human H460 cells after 72 hrs; type: functional, cell-based; settings: NCI-H460, 72 h
[5] = Cytotoxicity against human LCC-6 cells expressing P-glycoprotein after 72 hrs; type: functional, cell-based; settings: LCC-6, 72 h
MCF7 [6] = assay: Cytotoxicity against P-glycoprotein deficient wild type human MCF7 cells after 72 hrs; type: functional, cell-based; settings: MCF7, 72 h
MCF7 [7] = assay: Resistance factor, ratio of IC50 for human MCF7 cells expressing P-glycoprotein to IC50 for P-glycoprotein deficient wild type human MCF7 cells; type: functional

| Compound | Ratio (MCF7 [1]) | IC50 [2] | Ratio [3] | IC50 (HT-29) | IC50 (MCF7 [4]) | IC50 (NCI-H460) | IC50 [5] | IC50 (MCF7 [6]) | Ratio (MCF7 [7]) |
| --- | --- | --- | --- | --- | --- | --- | --- | --- | --- |
| CCC(=O)O[C@H]1C(=O)[C@@]2(C)[C@H]([C@H](OC(=O)c3cccc(OC)c3)[C@]3(O)C[C@H](OC(=O)[C@H](O)[C@H](CC(C)C)NC(=O)C4CCCCC4)C(C)=C1C3(C)C)[C@]1(OC(C)=O)CO[C@@H]1C[C@@H]2O | 9.3 | 1000 pM | 12 | – | – | – | – | – | – |
| COc1ccc(CC(=O)O[C@H]2C(=O)[C@@]3(C)[C@H]([C@H](OC(=O)c4cccc(OC)c4)[C@]4(O)C[C@H](OC(=O)[C@H](O)[C@H](C=C(C)C)NC(=O)OC(C)(C)C)C(C)=C2C4(C)C)[C@]2(OC(C)=O)CO[C@@H]2C[C@@H]3O)cc1 | 3 | 400 pM | 1 | – | – | – | – | – | – |
| CCC(=O)O[C@H]1C(=O)[C@@]2(C)[C@H]([C@H](OC(=O)c3ccccc3)[C@]3(O)C[C@H](OC(=O)[C@H](O)[C@H](CC(C)C)NC(=O)C4CCCC4)C(C)=C1C3(C)C)[C@]1(OC(C)=O)CO[C@@H]1C[C@@H]2O | 12 | 6300 pM | 10 | – | – | – | – | – | – |
| CCC(=O)O[C@H]1C(=O)[C@@]2(C)[C@H]([C@H](OC(=O)c3cccc(OC)c3)[C@]3(O)C[C@H](OC(=O)[C@H](O)[C@H](C=C(C)C)NC(=O)C4CCCC4)C(C)=C1C3(C)C)[C@]1(OC(C)=O)CO[C@@H]1C[C@@H]2O | 32 | 1100 pM | 10 | – | – | – | – | – | – |
| CCC(=O)O[C@H]1C(=O)[C@@]2(C)[C@H]([C@H](OC(=O)c3ccccc3)[C@]3(O)C[C@H](OC(=O)[C@H](O)[C@H](CC(C)C)NC(=O)C4CCCCC4)C(C)=C1C3(C)C)[C@]1(OC(C)=O)CO[C@@H]1C[C@@H]2O | 13 | 5800 pM | 5.5 | – | – | – | – | – | – |
| CCC(=O)O[C@H]1C(=O)[C@@]2(C)[C@H]([C@H](OC(=O)c3ccccc3)[C@]3(O)C[C@H](OC(=O)[C@H](O)[C@H](CC(C)C)NC(=O)OC4CCCC4)C(C)=C1C3(C)C)[C@]1(OC(C)=O)CO[C@@H]1C[C@@H]2O | 6.8 | 2600 pM | 5.4 | – | – | – | – | – | – |
| CCC(=O)O[C@H]1C(=O)[C@@]2(C)[C@H]([C@H](OC(=O)c3ccccc3)[C@]3(O)C[C@H](OC(=O)[C@H](O)[C@H](C=C(C)C)NC(=O)C4CCCCC4)C(C)=C1C3(C)C)[C@]1(OC(C)=O)CO[C@@H]1C[C@@H]2O | 18 | 1300 pM | 10 | – | – | – | – | – | – |
| CCC(=O)O[C@H]1C(=O)[C@@]2(C)[C@H]([C@H](OC(=O)c3ccccc3)[C@]3(O)C[C@H](OC(=O)[C@H](O)[C@H](CC(C)C)NC(=O)OC(C)(C)C)C(C)=C1C3(C)C)[C@]1(OC(C)=O)CO[C@@H]1C[C@@H]2O | 15 | – | – | – | – | – | – | – | – |
| CCC(=O)O[C@H]1C(=O)[C@@]2(C)[C@H]([C@H](OC(=O)c3ccccc3)[C@]3(O)C[C@H](OC(=O)[C@H](O)[C@H](C=C(C)C)NC(=O)C4CCCC4)C(C)=C1C3(C)C)[C@]1(OC(C)=O)CO[C@@H]1C[C@@H]2O | 20 | 1100 pM | 17 | – | – | – | – | – | – |
| CCC(=O)O[C@H]1C(=O)[C@@]2(C)[C@H]([C@H](OC(=O)c3ccccc3)[C@]3(O)C[C@H](OC(=O)[C@H](O)[C@H](C=C(C)C)NC(=O)OC(C)(C)C)C(C)=C1C3(C)C)[C@]1(OC(C)=O)CO[C@@H]1C[C@@H]2O | 22 | – | – | – | – | – | – | – | – |
| CCC(=O)O[C@H]1C(=O)[C@@]2(C)[C@H]([C@H](OC(=O)c3ccccc3)[C@]3(O)C[C@H](OC(=O)[C@H](O)[C@H](C=C(C)C)NC(=O)C4=CCCCC4)C(C)=C1C3(C)C)[C@]1(OC(C)=O)CO[C@@H]1C[C@@H]2O | 13 | 1200 pM | 9.2 | – | – | – | – | – | – |
| CCC(=O)O[C@H]1C(=O)[C@@]2(C)[C@H]([C@H](OC(=O)c3cccc(OC)c3)[C@]3(O)C[C@H](OC(=O)[C@H](O)[C@H](C=C(C)C)NC(=O)OC4CCCCC4)C(C)=C1C3(C)C)[C@]1(OC(C)=O)CO[C@@H]1C[C@@H]2O | 9.7 | 1230 pM | 12 | – | – | – | – | – | – |
| COc1cccc(C(=O)O[C@H]2[C@@H]3[C@]4(OC(C)=O)CO[C@@H]4C[C@H](O)[C@@]3(C)C(=O)[C@H](OC(=O)N(C)C)C3=C(C)[C@@H](OC(=O)[C@H](O)[C@@H](NC(=O)OC(C)(C)C)C(F)F)C[C@]2(O)C3(C)C)c1 | – | 690 pM | 10 | 430 pM | 4510 pM | 400 pM | 7060 pM | 450 pM | 10 |
| CCC(=O)O[C@H]1C(=O)[C@@]2(C)[C@H]([C@H](OC(=O)c3cccc(Cl)c3)[C@]3(O)C[C@H](OC(=O)[C@H](O)[C@@H](NC(=O)OC(C)(C)C)C(F)F)C(C)=C1C3(C)C)[C@]1(OC(C)=O)CO[C@@H]1C[C@@H]2O | – | 520 pM | 9.1 | 430 pM | 5200 pM | 300 pM | 4710 pM | 440 pM | 12 |
| CC(=O)O[C@H]1C(=O)[C@@]2(C)[C@H]([C@H](OC(=O)c3cccc(Cl)c3)[C@]3(O)C[C@H](OC(=O)[C@H](O)[C@@H](NC(=O)OC(C)(C)C)C(F)(F)F)C(C)=C1C3(C)C)[C@]1(OC(C)=O)CO[C@@H]1C[C@@H]2O | – | 220 pM | 23 | 850 pM | 5040 pM | 500 pM | 4960 pM | 400 pM | 13 |
| CC(=O)O[C@H]1C(=O)[C@@]2(C)[C@H]([C@H](OC(=O)c3cccc(N=[N+]=[N-])c3)[C@]3(O)C[C@H](OC(=O)[C@H](O)[C@@H](NC(=O)OC(C)(C)C)C(F)(F)F)C(C)=C1C3(C)C)[C@]1(OC(C)=O)CO[C@@H]1C[C@@H]2O | – | 1180 pM | 3.4 | 500 pM | 3850 pM | 200 pM | 4000 pM | 470 pM | 8.2 |
| CC(=O)O[C@@]12CO[C@@H]1C[C@H](O)[C@@]1(C)C(=O)[C@H](OC(=O)N(C)C)C3=C(C)[C@@H](OC(=O)[C@H](O)[C@@H](NC(=O)OC(C)(C)C)C(F)(F)F)C[C@@](O)([C@@H](OC(=O)c4cccc(F)c4)[C@H]21)C3(C)C | – | 320 pM | 17 | 760 pM | 2640 pM | 500 pM | 5570 pM | 320 pM | 8.3 |
| CCC(=O)O[C@H]1C(=O)[C@@]2(C)[C@H]([C@H](OC(=O)c3cccc(N=[N+]=[N-])c3)[C@]3(O)C[C@H](OC(=O)[C@H](O)[C@@H](NC(=O)OC(C)(C)C)C(F)(F)F)C(C)=C1C3(C)C)[C@]1(OC(C)=O)CO[C@@H]1C[C@@H]2O | – | 1090 pM | 2.3 | 400 pM | 1610 pM | 200 pM | 2560 pM | 380 pM | 4.2 |
| COC(=O)O[C@H]1C(=O)[C@@]2(C)[C@H]([C@H](OC(=O)c3cccc(OC)c3)[C@]3(O)C[C@H](OC(=O)[C@H](O)[C@@H](NC(=O)OC(C)(C)C)C(F)F)C(C)=C1C3(C)C)[C@]1(OC(C)=O)CO[C@@H]1C[C@@H]2O | – | 1030 pM | 9.9 | 440 pM | 6590 pM | 300 pM | 10200 pM | 810 pM | 8.1 |
